Test results from patent US20250065246A1, “SOLVENT COMPOSITION FOR NATURAL MATERIAL EXTRACTION” (GS CALTEX CORPORATION, priority 2018, published 2025).

How the values were obtained:
P. aeruginosa = assay: Evaluation of antibacterial property, minimum inhibitory concentration; type: cell-based
Description: (§1) To evaluate an antibacterial property of the solvent compositions for extracting a natural material in examples 2 and 3, and comparative examples 3 and 4, minimum inhibitory concentration (MIC; %) of a total of five microorganisms was measured. A lower minimum inhibitory concentration (%) may denote a more excellent antibacterial property.

S. aureus = assay: as above; type: cell-based
Description: as §1

E. coli = assay: as above; type: cell-based
Description: as §1

A. niger = assay: as above; type: cell-based
Description: as §1

C. albicans = assay: as above; type: cell-based
Description: as §1

skin = assay: Evaluation of skin irritation, patch test (PCPC Safety Evaluation Guidelines, ICDRG standard); type: in vivo, human; conditions: patch test on 32 people, 30 wt %
Description: To evaluate skin irritation caused by solvent compositions for extracting a natural material in example 1 and comparative examples 1, 2 and 3, a patch test was conducted on a total of 32 people. The solvent compositions for extracting a natural material in example 1 and comparative examples 1, 2 and 3 were all at a concentration of 30 wt %, and the patch test was performed under the PCPC Safety Evaluation Guidelines and the ICDRG standard.

| SMILES | P. aeruginosa (MIC %) (P. aeruginosa) [%] | S. aureus (MIC %) (S. aureus) [%] | E. coli (MIC %) (E. coli) [%] | A. niger (MIC %) (A. niger) [%] | C. albicans (MIC %) (C. albicans) [%] | Cases with skin irritation (skin) | Skin irritation category under ICDRG standard (skin) | Skin irritation index 30 minutes (skin) | Skin irritation index 24 hours (skin) | Skin irritation index 48 hours (skin) | Cases with skin irritation (skin; listed as comparative example 3) |
| --- | --- | --- | --- | --- | --- | --- | --- | --- | --- | --- | --- |
| OCCCO [Comparative example 4, 1,3-propanediol] | 12.5 | 25 | 22 | 25 | 25 |  |  |  |  |  |  |
| CC(O)C(C)O (centres unmarked) [compound 1, 2,3-butanediol] |  |  |  |  |  | 0 | no skin irritation | 0.0 | 0.0 | 0.0 |  |
| CC(O)CCO (centres unmarked) [Comparative example 3, 1,3-butanediol] | 12.5 | 25 | 17.5 | 12.5 | 12.5 | 2 | minor skin irritation | 0.5 | 0.0 | 0.0 | two |
| CC(O)C(C)O (centres unmarked) [Example 1, 2,3-butanediol] |  |  |  |  |  | 0 | no skin irritation | 0.0 | 0.0 | 0.0 |  |
| CC(O)C(C)O (single isomer, unassigned) [Example 2, levo-2,3-butanediol] | 10 | 25 | 15 | 12.5 | 12.5 |  |  |  |  |  |  |
| OCCCO [Comparative example 2, 1,3-propanediol] |  |  |  |  |  | 0 | no skin irritation | 0.0 | 0.0 | 0.0 |  |
| CC(O)C(C)O (single isomer, unassigned) [Example 3, meso-2,3-butanediol] | 6.25 | 25 | 12.5 | 12.5 | 12.5 |  |  |  |  |  |  |
